Results on one substance are retold here after patent US20210154268A1, “COMBINATION THERAPY USING A PEPTIDE” (CYTOVATION AS, priority 2018, published 2021).

Where no end group is shown, it is not given here. [ ]: non-standard residue; d: D form.

For one data set, the system named is tumour. The settings on record: animal models of disease; cited from earlier work.
The next data set deals with cancer cells. The settings on record: in vitro; cited from earlier work.
The subject of data set [1] is MC38 colon carcinoma cells. The data set is described as follows: MC38 colon carcinoma mouse model, tumour volume by caliper. The data set is classed as in vivo. The settings on record: female C57/BL6N mice with MC38 tumours; CyPep-1 2 mg/kg intratumoural days 1 and 2; anti-PD-1 antibody 5 mg/kg intraperitoneal days 4, 8, 11, 15; unpaired two-tailed t-test; combination P=0.02. On the procedure:
Female C57/BL6N mice were shaved at the intended site of tumour inoculation. 4 days later the mice were implanted with 5×10^5 MC38 colon carcinoma cells in a mixture of 50% PBS and 50% matrigel in a total injection volume of 100 μl.
Tumour sizes were measured by caliper. When the median tumour volume reached 100 mm^3, 40 mice were randomised to four groups: 1) Ctr_IT; 2) Ctr_IT_PD1; 3) CyPep_IT; and 4) CyPep_IT_PD1.
The Ctr_IT group were administered 0.05 ml/kg intratumoural PBS on days 1 and 2.
The Ctr_IT_PD1 group were administered 0.05 ml/kg/day intratumoural PBS on days 1 and 2, and 5 mg/kg intraperitoneal anti-PD-1 antibody on days 4, 8, 11 and 15. The anti-PD-1 antibody was administered in PBS at a concentration of 1 mg/ml.
The CyPep_IT group were administered 2 mg/kg CyPep-1 on days 1 and 2. Administration was intratumoural in PBS at a concentration of 40 mg/ml.
The CyPep_IT_PD1 group were administered 2 mg/kg intratumoural CyPep-1 in PBS at a concentration of 40 mg/ml on days 1 and 2; and 5 mg/kg intraperitoneal anti-PD-1 antibody on days 4, 8, 11 and 15, in PBS at a concentration of 1 mg/ml.
All groups were standardised prior to checkpoint inhibitor administration by excluding animals with tumours+/−>2X average at day three. […] Average tumour volumes of the groups were analysed by unpaired two-tailed t-test, and the tumours were also histologically analysed.

Data set [2] has as its system Gram-positive and Gram-negative bacteria. The settings on record: medically-relevant species of Gram-positive and Gram-negative bacteria; cited from earlier work.

For “CyPep-1: all D-amino acid peptide of SEQ ID NO: 1; Conductin/Axin2 fragment coupled to the C-terminus of the HIV-TAT cell-penetrating peptide ([dY]G[dR][dK][dK][dR][dR][dQ][dR][dR][dR]G[dK][dT][dL][dR][dV][dA][dK][dA][dI][dY][dK][dR][dY][dI][dE])”, in the data set with tumour, the anti-tumour effect entry was “strong anti-tumour effect” and the tolerability result is listed as “well tolerated”. Also, the “selective cytotoxicity towards cancer cells” value in the data set on cancer cells is reported as “selectively cytotoxic towards cancer cells”. For the same substance, the “tumour growth compared to the control group which received only PBS” value in data set [1] is on record as “no statistically-significant difference”. Also, the bacteriocidal effect result in data set [2] was “potent bacteriocidal effect”.
